# Values joined by “and” are separate entries in the source; they are usually repeats but may differ in a detail not shown here. Equal entries are not always repeated.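 Tested at 5 concentrations; 48 h exposure; 96-well plates; endpoints linearly interpolated, else capped at highest concentration. The concentration for 50% growth inhibition is given as GI50. TGI marks complete inhibition of growth.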
# Legend:
# Test in all cases: NCI-60 cell line screen, 48 h
# [1] = system: SF-539 CNS
# [2] = system: SF-295 CNS
# [3] = system: MCF7 breast
# [4] = system: OVCAR-4 ovarian
# [5] = system: LOX IMVI melanoma
# [6] = system: PC-3 prostate
# [7] = system: SW-620 colon
# [8] = system: NCI-H522 lung
# [9] = system: COLO 205 colon
# [10] = system: DU-145 prostate
Compound,GI50 [1],TGI [1],GI50 [2],TGI [2],GI50 [3],TGI [3],GI50 [4],TGI [4],GI50 [5],TGI [5],GI50 [6],TGI [6],TGI [7],GI50 [8],TGI [8],GI50 [9],TGI [9],GI50 [10],TGI [10],GI50 [7]
C/C(=N\N=C(\[Se])N1CCN(c2ccccn2)CC1)c1ccccn1,407 nM,12.2 µM,20.4 nM,16.7 µM,2.78 nM,14.3 µM,5.54 nM,3.31 µM,4.43 nM,17.6 µM,334 nM,14.2 µM,12.4 µM,42.9 nM,0.761 µM and 3.2 µM,4.49 nM,0.0358 µM,586 nM,20.1 µM,
CN(N=O)C(=O)N[C@@H](C=O)[C@@H](O)[C@H](O)[C@H](O)CO,> 750000 nM,> 750 µM,> 750000 nM,621 µM and > 750 µM,,> 633 µM,> 750000 nM,609 µM and > 750 µM,722000 nM and > 750000 nM,> 750 µM,,> 750 µM,590 µM and > 750 µM,> 750000 nM,646 µM and > 750 µM,> 750000 nM,640 µM and > 750 µM,,> 750 µM,> 750000 nM
CN(C)c1ccc(/C=C2\N=C(c3ccc([N+](=O)[O-])cc3)OC2=O)cc1,,> 100 µM,,> 100 µM,,> 100 µM,,> 100 µM,,61.2 µM,,> 100 µM,> 100 µM,,> 100 µM,,> 100 µM,,> 100 µM,
CC(=O)c1c(C)n(C)c2c1nnc1ccccc12,,> 100 µM,,> 100 µM,,86.3 µM,,> 100 µM,,> 100 µM,,> 100 µM,> 100 µM,,> 100 µM,,> 100 µM,,> 100 µM,
CC(C)(C#N)c1cc(F)cc(C(=O)Nc2cc(Nc3ncccc3-c3ncnc4nc[nH]c34)ccc2F)c1,527 nM,5.65 µM,3740 nM,> 10 µM,8730 nM,> 10 µM,4710 nM,> 10 µM,104 nM,1.8 µM,7670 nM,> 10 µM,> 10 µM,2660 nM,> 10 µM,109 nM,> 10 µM,5510 nM,> 10 µM,1130 nM
CNC(=O)c1ccc2cc(C3(O)CCn4cncc43)ccc2c1 (stereo not given),> 100000 nM,> 100 µM,> 100000 nM,> 100 µM,> 100000 nM,> 100 µM,> 100000 nM,> 100 µM,> 100000 nM,> 100 µM,> 100000 nM,> 100 µM,> 100 µM,> 100000 nM,> 100 µM,> 100000 nM,> 100 µM,> 100000 nM,> 100 µM,> 100000 nM
C/C1=C/C2=CC(C)C[C@@H]2C(=O)[C@]2(C)C(=O)CC(C)(C)[C@H]2CC1=O (stereo not given in full),,> 50 µM,,> 50 µM,,> 50 µM,,> 50 µM,,> 50 µM,,> 50 µM,> 50 µM,,> 50 µM,,> 50 µM,,> 50 µM,
c1ccc(-c2cc(C3CO3)c3ccccc3n2)cc1 (stereo not given),,56.7 µM,,> 100 µM,,47.8 µM,,37.2 µM,,34.1 µM,,41.2 µM,71.3 µM,,14.6 µM,,37.4 µM,,34.7 µM,
CCOC(=O)c1c2c(n(Cc3ccccc3)c1C)-c1ccccc1C(=O)C2=O,18700 nM,34.4 µM,19600 nM,48.4 µM,5230 nM,20.9 µM,10900 nM,25.4 µM,11800 nM,24.6 µM,6830 nM,19.8 µM,28.4 µM,14800 nM,35.5 µM,15600 nM,30.6 µM,4210 nM,12.4 µM,11700 nM
COc1ccc2c(c1)C(=O)C(=O)c1cc(O)c(OC)c(OC)c1-2,,3.35 µM,1770 nM,1.65 µM and 3.15 µM,1960 nM,1.74 µM and 3.59 µM,1560 nM,1.59 µM and 2.9 µM,1480 nM,1.83 µM and 3.16 µM,1930 nM,2.48 µM and 3.34 µM,3.18 µM and 9.14 µM,1920 nM,1.74 µM and 3.55 µM,1890 nM,3.54 µM and 3.74 µM,1740 nM,1.75 µM and 3.12 µM,2800 nM
O=C(Nc1cccc(Oc2nnc(Cl)c3ccccc23)c1)Nc1ccc(Cl)c(C(F)(F)F)c1,1380 nM,4.01 µM,657 nM,3.7 µM,571 nM,3.03 µM,593 nM,6.01 µM,680 nM,2.82 µM,545 nM,2.51 µM,4.9 µM,499 nM,3.46 µM,970 nM,3.9 µM,1270 nM,4.08 µM,1920 nM
CN1CCN(c2ccc3nc(-c4c(N)c5c(F)cccc5[nH]c4=O)[nH]c3c2)CC1,566 nM and 338 nM and 487 nM,1.96 µM and 1.21 µM and 1.75 µM,2410 nM and 1090 nM and 3140 nM,8.1 µM and > 6.69 µM and 8.95 µM,875 nM and 710 nM and 1210 nM,2.78 µM and > 4.82 µM and 6.76 µM,622 nM and 498 nM and 646 nM,4.55 µM and > 10 µM and 10.9 µM,478 nM and 410 nM and 769 nM,1.86 µM and 1.48 µM and 2.14 µM,1160 nM and 1020 nM and 1730 nM,7.1 µM and > 7.42 µM and 8.59 µM,1.94 µM and 3.21 µM and 2.65 µM,999 nM and 398 nM and 2290 nM,2.87 µM and > 2.3 µM and 11.7 µM,965 nM and 496 nM and 2260 nM,2.31 µM and > 2.04 µM and 17.2 µM,991 nM and 547 nM and 1060 nM,2.97 µM and > 6.53 µM and 9.59 µM,533 nM and 379 nM and 576 nM

# Source: PubChem BioAssay (NCI)
